According to US7709636B2, “Pyrazole sulfonylurea compound and herbicide” (Nissan Chemical Industries, Ltd., priority 2004, dated 2010):

Legend:
[1] = test system: transplanted rice (Oryza sativa); assay: Herbicidal effect test in submerged condition by treatment before weed-generation (2); format: in vivo; settings: 0.3 g/a; submerged paddy soil pot, rice seedlings at 2.5th leaf stage transplanted; 3 weeks after treatment
Procedure: (§1) Herbicidal Effect Test in Submerged Condition by Treatment Before Weed-Generation (2)
(§2) Paddy surface soil was placed in a plastic pot of 1/10000 are, water was poured therein and mixed. After seeds of Scirpus juncoides were sown, paddy surface soil was added by 2 cm, and submerged with water, and then seeds of Echinochloa crus-galli, Scirpus juncoides, Monochoria vaginalis, Rotala indica and Lindernia pyxidaria were sown together. In addition, rice seedlings at 2.5th leaf stage were transplanted, and fixed to the paddy surface in a state where the roots were exposed on the other side. On the day when the seeds were sown, the wettable powder of the present invention prepared according to Formulation Example 1 was diluted with water so as to give a predetermined formulation amount, and the surface of the water was treated with the diluted wettable powder. The plants were grown by putting the pot in a green house at 25 to 30° C. The herbicidal effect for each plant was investigated 3 weeks after treatment with the herbicide according to the criteria indicated in Test Example 1.

[2] = test system: Scirpus juncoides; assay: as above; format: in vivo; settings: 0.3 g/a; submerged paddy soil pot, water surface treated on day of sowing; 3 weeks after treatment
Procedure: as §1, §2

[3] = test system: Rotala indica; assay: as above; format: in vivo; settings: 0.3 g/a; submerged paddy soil pot, water surface treated on day of sowing; 3 weeks after treatment
Procedure: as §1, §2

[4] = test system: Echinochloa crus-galli; assay: as above; format: in vivo; settings: 0.3 g/a; submerged paddy soil pot, water surface treated on day of sowing; 3 weeks after treatment
Procedure: as §1, §2

[5] = test system: Monochoria vaginalis; assay: as above; format: in vivo; settings: 0.3 g/a; submerged paddy soil pot, water surface treated on day of sowing; 3 weeks after treatment
Procedure: as §1, §2

[6] = test system: Lindernia pyxidaria; assay: as above; format: in vivo; settings: 0.3 g/a; submerged paddy soil pot, water surface treated on day of sowing; 3 weeks after treatment
Procedure: as §1, §2

[7] = test system: rice transplanted at a depth of 0 cm; assay: as above; format: in vivo, Oryza sativa; settings: 0.3 g/a; submerged paddy soil pot, seedlings fixed to paddy surface with roots exposed; 3 weeks after treatment
Procedure: as §1, §2

[8] = test system: Scirpus juncoides; assay: Herbicidal effect test in submerged condition by treatment before weed-generation (1); format: in vivo; settings: 0.64 g/a, water surface treated on day of sowing, 3 weeks after treatment
How it was run: (§3)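 Pre-emergence water-surface application of diluted wettable-powder formulation at a predetermined rate, same day as sowing, in flooded alluvial soil (4 cm water) with transplanted 2.5-leaf rice. Grown 3 weeks at 25 to 30° C in greenhouse; rated 0–5 by herbicidal rate.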

[9] = test system: Echinochloa crus-galli; assay: as above; format: in vivo; settings: 0.64 g/a, water surface treated on day of sowing, 3 weeks after treatment
How it was run: as §3

[10] = test system: Monochoria vaginalis; assay: as above; format: in vivo; settings: 0.64 g/a, water surface treated on day of sowing, 3 weeks after treatment
How it was run: as §3

[11] = test system: Scirpus juncoides; assay: Herbicidal effect test in submerged condition by treatment during weed-growth stage (1); format: in vivo; settings: 0.64 g/a, treated at 1st to 2nd leaf stage, 3 weeks after treatment
How it was run: (§4)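 Paddy-soil pots flooded to 4 cm water depth were sown and grown in a greenhouse at 25 to 30° C until weeds reached 1st to 2nd leaf stage. A wettable powder diluted in water to a predetermined formulation amount was applied to the water surface. Herbicidal effect was scored 3 weeks after treatment against set criteria.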

[12] = test system: Echinochloa crus-galli; assay: as above; format: in vivo; settings: 0.64 g/a, treated at 1st to 2nd leaf stage, 3 weeks after treatment
How it was run: as §4

[13] = test system: Monochoria vaginalis; assay: as above; format: in vivo; settings: 0.64 g/a, treated at 1st to 2nd leaf stage, 3 weeks after treatment
How it was run: as §4

[14] = test system: transplanted rice (Oryza sativa); assay: Crop injury test on rice in water leakage condition; format: in vivo; settings: 0.15 g/a; water leakage 2 cm/day x 3 days; treated on third day after transplantation; 3 weeks after treatment
Procedure: Crop Injury Test on Rice in Water Leakage Condition A mixed soil of alluvial soil and diluvial soil was placed in a plastic pot perforated at the bottom of 1/10000 are, water was poured therein and mixed, and then rice seedlings at 2.5th leaf stage were transplanted. Water leakage treatment was carried out by placing the pot in a plastic vat, and controlling the amount of water in the vat kept at a condition of 2 cm/day×3 days. The pot was put in a green house at 25 to 30° C., on third day after transplantation, the wettable powder of the present invention prepared according to Formulation Example 1 was diluted with water so as to give a predetermined formulation amount, and the surface of the water was treated with the diluted wettable powder. The crop injury on rice was investigated 3 weeks after treatment with the herbicide according to the criteria indicated in Test Example 1.

COc1cc(OC)nc(NC(=O)NS(=O)(=O)c2c(C3=NOCCO3)c(C)nn2C)n1 [Comparative Compound 2]
herbicidal effect, a: transplanted rice (Oryza sativa) [1]: 4 (Herbicidal rate 70% or more and less than 90%) | herbicidal effect, B: Scirpus juncoides [2]: 5 (Herbicidal rate 90% or more (almost complete death)) | herbicidal effect, N: Rotala indica [3]: 5 (Herbicidal rate 90% or more (almost complete death)) | herbicidal effect, A: Echinochloa crus-galli [4]: 5 (Herbicidal rate 90% or more (almost complete death)) | herbicidal effect, C: Monochoria vaginalis [5]: 5 (Herbicidal rate 90% or more (almost complete death)) | herbicidal effect, O: Lindernia pyxidaria [6]: 5 (Herbicidal rate 90% or more (almost complete death)) | herbicidal effect, g: rice transplanted at a depth of 0 cm [7]: 4 (Herbicidal rate 70% or more and less than 90%) | herbicidal effect, B: Scirpus juncoides [8]: 5 (Herbicidal rate 90% or more (almost complete death)) | herbicidal effect, A: Echinochloa crus-galli [9]: 5 (Herbicidal rate 90% or more (almost complete death)) | herbicidal effect, C: Monochoria vaginalis [10]: 5 (Herbicidal rate 90% or more (almost complete death)) | herbicidal effect, B: Scirpus juncoides [11]: 5 (Herbicidal rate 90% or more (almost complete death)) | herbicidal effect, A: Echinochloa crus-galli [12]: 5 (Herbicidal rate 90% or more (almost complete death)) | herbicidal effect, C: Monochoria vaginalis [13]: 5 (Herbicidal rate 90% or more (almost complete death)) | crop injury on rice, a: transplanted rice (Oryza sativa) [14]: 5 (Herbicidal rate 90% or more (almost complete death))

COc1cc(OC)nc(NC(=O)NS(=O)(=O)c2c(C3=NOCCO3)c(Cl)nn2C)n1 [Comparative Compound 1]
herbicidal effect, a: transplanted rice (Oryza sativa) [1]: 0 (Herbicidal rate 5% or less (little effect)) | herbicidal effect, B: Scirpus juncoides [2]: 5 (Herbicidal rate 90% or more (almost complete death)) | herbicidal effect, N: Rotala indica [3]: 5 (Herbicidal rate 90% or more (almost complete death)) | herbicidal effect, A: Echinochloa crus-galli [4]: 5 (Herbicidal rate 90% or more (almost complete death)) | herbicidal effect, C: Monochoria vaginalis [5]: 5 (Herbicidal rate 90% or more (almost complete death)) | herbicidal effect, O: Lindernia pyxidaria [6]: 5 (Herbicidal rate 90% or more (almost complete death)) | herbicidal effect, g: rice transplanted at a depth of 0 cm [7]: 3 (Herbicidal rate 40% or more and less than 70%) | herbicidal effect, B: Scirpus juncoides [8]: 5 (Herbicidal rate 90% or more (almost complete death)) | herbicidal effect, A: Echinochloa crus-galli [9]: 5 (Herbicidal rate 90% or more (almost complete death)) | herbicidal effect, C: Monochoria vaginalis [10]: 5 (Herbicidal rate 90% or more (almost complete death)) | herbicidal effect, B: Scirpus juncoides [11]: 5 (Herbicidal rate 90% or more (almost complete death)) | herbicidal effect, A: Echinochloa crus-galli [12]: 5 (Herbicidal rate 90% or more (almost complete death)) | herbicidal effect, C: Monochoria vaginalis [13]: 5 (Herbicidal rate 90% or more (almost complete death)) | crop injury on rice, a: transplanted rice (Oryza sativa) [14]: 3 (Herbicidal rate 40% or more and less than 70%)
